Assay results from patent publication US9765056B2, “Indole and pyrrole compounds, a process for their preparation and pharmaceutical compositions containing them” (LES LABORATOIRES SERVIER, priority 2013, dated 2017).

Columns and labels:
[1] = tested on: cleaved form of caspase 3; experiment: Quantification of the cleaved form of caspase 3 in vivo (MSD ELISA) in RS4;11 xenograft tumour lysates; parameters: species or system mice (SCID strain); details: oral route, 25 mg/kg, tumour removed after 2 h
Experimental: Quantification of the Cleaved Form of Caspase 3 In Vivo
The ability of the compounds of the invention to activate caspase 3 is evaluated in a xenograft model of RS4;11 leukaemia cells.
1×10^7 RS4;11 cells are grafted subcutaneously into immunosuppressed mice (SCID strain). 25 to 30 days after the graft, the animals are treated orally with the various compounds. After treatment, the tumour masses are recovered (after a time period T) and lysed, and the cleaved (activated) form of caspase 3 is quantified in the tumour lysates.
This quantification is carried out using the “Meso Scale Discovery (MSD) ELISA platform” test, which specifically assays the cleaved form of caspase 3. It is expressed in the form of an activation factor corresponding to the ratio between the quantity of cleaved caspase 3 in the treated mice divided by the quantity of cleaved caspase 3 in the control mice.

[2] = tested on: RS4;11 leukaemia tumour line; experiment: In vitro cytotoxicity, Microculture Tetrazolium Assay (MTT); format: cell-based; details: Homo sapiens; RS4;11 cells, 48 hours exposure
Experimental: The cytotoxicity studies were carried out on the RS4;11 leukaemia tumour line.
The cells are distributed onto microplates and exposed to the test compounds for 48 hours. The cell viability is then quantified by a colorimetric assay, the Microculture Tetrazolium Assay (Cancer Res., 1987, 47, 939-942).

Bcl-2 protein = Bcl-2 protein (histag-Bcl-2, UniProtKB P10415) (Homo sapiens (Human), UniProt P10415); experiment: Inhibition of Bcl-2 by the fluorescence polarisation technique; format: binding; details: fluorescence polarisation test; method A, or method B where underlined (underlining not visible); read-out: IC50 (nM) Bcl-2 FP
Chain of Bcl-2 protein (P10415 whole entry): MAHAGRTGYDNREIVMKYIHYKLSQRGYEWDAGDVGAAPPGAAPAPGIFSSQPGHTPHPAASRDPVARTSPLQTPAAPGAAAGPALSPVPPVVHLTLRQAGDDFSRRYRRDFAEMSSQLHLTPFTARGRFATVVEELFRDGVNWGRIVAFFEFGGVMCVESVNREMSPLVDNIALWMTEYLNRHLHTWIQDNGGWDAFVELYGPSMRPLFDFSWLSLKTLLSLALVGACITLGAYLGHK
Text: Inhibition of Bcl-2 by the fluorescence polarisation technique

IC50 (Bcl-2 protein): 3.7 nM
SMILES: Cc1c(C(=O)N(c2ccc(O)cc2)c2cc(C#N)n(C)c2C)cn(-c2cc(Cl)ccc2C(=O)N2Cc3ccccc3C[C@H]2CN2CCOCC2)c1C.Cl [Example 211, 1-(5-Chloro-2-{[(3S)-3-(morpholin-4-ylmethyl)-3,4-dihydroisoquinolin-2(1H)-yl]carbonyl}phenyl)-N-(5-cyano-1,2-dimethyl-1H-pyrrol-3-yl)-N-(4-hydroxyphenyl)-4,5-dimethyl-1H-pyrrole-3-carboxamide hydrochloride]
Activation factor ± SEM (versus control), cleaved caspase 3 MSD test [1]: 94.7 ± 9.8
IC50 [2]: 46.9 nM
